Results published in article PMC12198292, “Advancing in vitro assessment of iodide uptake inhibition: integrating a novel biotransformation pretreatment step” (Archives of Toxicology, 2025).
Converted amounts (≈) assume the structure as drawn. Like-named read-outs stand apart in the source and are kept apart here.

Experiments:
human NIS [1] = target: T1, human NIS (Homo sapiens, UniProt Q92911); assay: NIS-inhibition assay (iodide uptake, Sandell–Kolthoff reaction) on HEK293T NIS C; assay type: cell-based; set-up: host or cells: HEK293T (lentiviral transduction, puromycin selection, GFP sorting; lines NIS 02 and NIS C); conditions: mean ± SD, ≥ 3 independent experiments; 2 h exposure; SK reaction
T1 sequence (Q92911 1-643): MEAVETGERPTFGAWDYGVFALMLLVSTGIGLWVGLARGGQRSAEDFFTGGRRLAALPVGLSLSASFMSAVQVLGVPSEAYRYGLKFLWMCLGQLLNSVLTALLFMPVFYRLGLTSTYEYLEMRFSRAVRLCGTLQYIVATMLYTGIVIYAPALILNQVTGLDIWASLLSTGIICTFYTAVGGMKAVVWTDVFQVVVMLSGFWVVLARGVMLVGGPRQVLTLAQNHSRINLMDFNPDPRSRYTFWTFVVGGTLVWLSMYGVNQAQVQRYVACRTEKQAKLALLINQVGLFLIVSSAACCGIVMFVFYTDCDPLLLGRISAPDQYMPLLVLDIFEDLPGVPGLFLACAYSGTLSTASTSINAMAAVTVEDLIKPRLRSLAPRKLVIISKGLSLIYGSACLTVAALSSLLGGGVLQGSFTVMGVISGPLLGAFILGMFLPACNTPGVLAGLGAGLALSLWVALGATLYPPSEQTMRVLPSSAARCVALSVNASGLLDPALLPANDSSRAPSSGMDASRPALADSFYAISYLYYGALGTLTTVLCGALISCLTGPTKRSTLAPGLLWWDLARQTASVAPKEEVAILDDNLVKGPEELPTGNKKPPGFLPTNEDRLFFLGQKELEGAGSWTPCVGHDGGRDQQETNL

human NIS [2] = target: T1, human NIS; assay: NIS-inhibition assay (iodide uptake, Sandell–Kolthoff reaction) on HEK293T NIS 02; assay type: cell-based; set-up: host or cells: HEK293T (lentiviral transduction, puromycin selection, GFP sorting; lines NIS 02 and NIS C); conditions: mean ± SD, ≥ 3 independent experiments, 2 h exposure, SK reaction; for IC50: read-out: NIS IC50 HEK293T NIS 02
HEK293T NIS C cells = assay: Neutral red uptake viability assay, HEK293T NIS C; conditions: mean±SD, 2 h exposure
NIS = target: T2, NIS (Rattus norvegicus, UniProt Q63008); assay: NIS-inhibition assay (iodide uptake, Sandell–Kolthoff reaction) on FRTL-5; assay type: cell-based; conditions: mean ± SD, ≥ 3 independent experiments; 2 h exposure; SK reaction
T2 construct: the endogenously NIS-expressing rat FRTL-5 cell line; host or cells: FRTL-5 (CVCL_0265)
T2 sequence (Q63008 1-618): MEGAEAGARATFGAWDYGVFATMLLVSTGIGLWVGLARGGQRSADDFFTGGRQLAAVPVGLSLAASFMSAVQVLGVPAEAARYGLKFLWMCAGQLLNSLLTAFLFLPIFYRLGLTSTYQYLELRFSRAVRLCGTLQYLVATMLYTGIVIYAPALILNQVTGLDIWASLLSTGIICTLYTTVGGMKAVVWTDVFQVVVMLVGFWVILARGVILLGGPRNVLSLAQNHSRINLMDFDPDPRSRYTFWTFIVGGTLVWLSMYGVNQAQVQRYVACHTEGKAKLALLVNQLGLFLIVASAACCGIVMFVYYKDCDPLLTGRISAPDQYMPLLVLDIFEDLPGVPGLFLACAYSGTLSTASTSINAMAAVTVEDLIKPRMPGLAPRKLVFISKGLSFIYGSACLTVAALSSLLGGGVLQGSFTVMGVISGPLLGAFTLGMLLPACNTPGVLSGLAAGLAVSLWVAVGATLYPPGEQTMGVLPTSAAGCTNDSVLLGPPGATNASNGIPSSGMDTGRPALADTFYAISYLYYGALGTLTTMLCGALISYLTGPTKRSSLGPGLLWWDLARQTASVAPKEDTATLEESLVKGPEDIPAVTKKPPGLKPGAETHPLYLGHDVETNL

FRTL-5 cells = assay: Neutral red uptake viability assay, FRTL-5; conditions: mean±SD, 2 h exposure
[3] = set-up: method as in PubChem https://pubchem.ncbi.nlm.nih.gov/; conditions: ref PubChem https://pubchem.ncbi.nlm.nih.gov/; cited from earlier work
[4] = ref PubChem https://pubchem.ncbi.nlm.nih.gov/; cited from earlier work
human NIS [5] = target: T1, human NIS; set-up: host or cells: HEK293T (lentiviral transduction, puromycin selection, GFP sorting; lines NIS 02 and NIS C); conditions: hNIS-HEK293T-EPA, RAIU, cited from earlier work
[6] = set-up: method as in PubChem https://pubchem.ncbi.nlm.nih.gov/; conditions: ref PubChem https://pubchem.ncbi.nlm.nih.gov/; cited from earlier work; remark: listed apart in the source
human NIS [7] = target: T1, human NIS; assay: Biotransformation (BTS, rat S9)-augmented NIS-inhibition assay, HEK293T NIS02; conditions: for IC20: three independent experiments; for effect of fully active BTS (W/S9, W/cof) on NIS inhibition versus control setups: two-way ANOVA, p < 0.05
[8] = read-out: NIS inhibition IC20 D S9, W/cof, 5 h preincubation with denatured S9 and cofactors
[9] = read-out: NIS inhibition IC20 W/O S9, W/cof, 5 h preincubation without S9 fraction, with all cofactors

Structure (SMILES) | NIS IC50 HEK293T NIS C (human NIS [1]) | NIS IC50 HEK293T NIS 02 (human NIS [2]) | NR IC20 HEK293T NISC (HEK293T NIS C cells) | NIS IC50 FRTL-5 (NIS) | NR IC20 FRTL-5 (FRTL-5 cells) | Henry‘s law [3] | solubility in water [4] | log Kow [6] | also measured
CC1(C)S[C@@H]2[C@H](NC(=O)[C@H](N)c3ccccc3)C(=O)N2[C@H]1C(=O)O [AMP, Ampicillin, reference compound] | n.e and n.e./ n.e. | n.e and n.e./ n.e. | n.e./ n.e. | n.e and n.e./ n.e. | n.e./ n.e. |  |  |  | 
O=C(c1ccc(O)cc1O)c1ccc(O)cc1O [BP2, 2,2′-4,4′-Tetrahydroxy Benzophenone] | n.e and n.e./ n.e. | n.e and n.e./ n.e. | n.e./ n.e. | n.e and n.e. / n.e. | n.e. / n.e. | 3.6x10^-6 atm- m^3/mol | 8821 µg/mL (≈ 35800 µM) |  | 
NC(=O)N1c2ccccc2C=Cc2ccccc21 [CBZ, Carbamazepine, reference compound] | n.e and n.e./ n.e. | n.e and n.e. / n.e. | n.e./ n.e. | n.e and n.e./ n.e. |  | 1.1x10^-10 atm- m^3/mol | 18 µg/mL (≈ 76.2 µM) |  | Data from literature NIS IC50 (human NIS [5]; ref US-EPA, 2024): n.e.; Data from literature NIS IC50 (human NIS [5]; ref Wang et al., 2019): n.e.
CC1=C[C@H]2O[C@@H]3[C@H](O)C[C@](C)([C@@]2(CO)[C@H](O)C1=O)[C@]31CO1 [DON, Deoxynivalenol] |  |  |  |  |  | 2.0x10^-14 atm- m^3/mol | 55000 µg/mL (≈ 186000 µM) | -0.71 | 
S=C1NCCN1 [ETU, Ethylene thiourea] | n.e and n.e./ n.e. | n.e and n.e./ n.e. | n.e./ n.e. | n.e and n.e./ n.e. | n.e./ n.e. | 1.4x10^-11 atm- m^3/mol |  | -0.66 | 
CCC(Cc1c(I)cc(I)c(N)c1I)C(=O)O (stereo not shown) [IOP, Iopanoic acid, reference compound] | n.e and n.e. / n.e. | n.e and n.e. / n.e. | n.e. / n.e. | n.e and n.e. / n.e. | n.e. / n.e. |  | 348.3 µg/mL (≈ 610 µM) |  | 
COc1ccc(C(c2ccc(OC)cc2)C(Cl)(Cl)Cl)cc1 [MET, Methoxychlor, reference compound] | n.e and n.e./ n.e. |  | n.e./ n.e. |  | 218±4.3 / n.e. | 2.03x10^-7 atm- m^3/mol | 0.04 µg/mL (≈ 0.116 µM) | 5.08 | IC20 (human NIS [7]; [8]): 20.7 ± 19.5 µM; IC20 (human NIS [7]; [9]): > 500 µM; effect of fully active BTS (W/S9, W/cof) on NIS inhibition versus control setups (human NIS [7]): no biotransformation-related effect changes were detected; IC20 (human NIS [5]; ref US-EPA, 2024, read-out: Data from literature NIS IC20): 12.6 µM; Data from literature NIS IC50 (human NIS [5]; ref Wang et al., 2018): n.e.; IC50 (human NIS [2]): 11 ± 8.7 µM; IC50 (NIS): 218 ± 4.3 µM
CCCc1cc(=O)[nH]c(=S)[nH]1 [PTU, 6-Propylthiouracil, reference compound] | n.e and n.e. / n.e. | n.e and n.e. / n.e. | n.e. / n.e. | n.e and n.e. / n.e. | n.e. / n.e. | 1.1x10^-9 atm- m^3/mol |  |  | Data from literature NIS IC50 (human NIS [5]; ref Buckalew et al., 2020): n.e.; Data from literature NIS IC50 (human NIS [5]; ref Hallinger et al., 2017): n.e.
Oc1cccc(O)c1 [RSC, Resorcinol] | n.e and n.e./ n.e. |  | n.e./ n.e. |  | 4709.5 ±562 / n.e. | 9.9x10^-11 atm- m^3/mol |  | 0.8 | effect of fully active BTS (W/S9, W/cof) on NIS inhibition versus control setups (human NIS [7]): no significant differences were observed; Data from literature NIS IC50 (human NIS [5]; ref Wang et al., 2019): n.e.; IC50 (human NIS [2]): 4060 ± 2050 µM; IC50 (NIS): 4710 ± 562 µM
O=C(O)c1ccccc1O [SA, Salicylic acid] | n.e and n.e. / n.e. | n.e and n.e. / n.e. | n.e. / n.e. | n.e and n.e. / n.e. | n.e. / n.e. |  |  | 2.26 | 
Cc1cc(NS(=O)(=O)c2ccc(N)cc2)no1 [SMX, Sulfamethoxazole, reference compound] | n.e and n.e. / n.e. | n.e and n.e. / n.e. |  | n.e and n.e. / n.e. |  |  |  |  | 
N[C@@H](Cc1cc(I)c(Oc2ccc(O)c(I)c2)c(I)c1)C(=O)O [T3, 3,3′,5-Triiodo-L-thyronine] |  |  | n.e. / n.e. |  | n.e. / n.e. |  |  | 0.93 | 
NC(Cc1cc(I)c(Oc2cc(I)c(O)c(I)c2)c(I)c1)C(=O)O [T4, 3,3′,5,5″-Tetraiodo-L-thyronine] | n.e and n.e. / n.e. | n.e and n.e. / n.e. | n.e. / n.e. | n.e and n.e. / n.e. | n.e. / n.e. |  | 0.162 µg/mL (≈ 0.209 µM) | 0.16 | 
O=P(Oc1ccccc1)(Oc1ccccc1)Oc1ccccc1 [TPP, Triphenyl phosphate] | n.e and n.e. / n.e. |  | n.e. / n.e. |  | 92.6 ±24.1 / n.e. | 3.3x10^-6 atm- m^3/mol |  | 4.6 | IC20 (human NIS [7]; [8]): 9.97 ± 3.36 µM; IC20 (human NIS [7]; read-out: NIS inhibition IC20 SM, standard method without preincubation, run in parallel): 7.93 ± 4.47 µM; IC20 (human NIS [7]; [9]): 17.5 ± 7.2 µM; effect of fully active BTS (W/S9, W/cof) on NIS inhibition versus control setups (human NIS [7]): no biotransformation-related effect changes were detected; IC50 (human NIS [5]; read-out: Data from literature NIS IC50, ref US-EPA, 2024): 50 µM; IC50 (human NIS [2]): 42.8 ± 18.9 µM; IC50 (NIS): 92.6 ± 24.1 µM
